Reference: BigSolDB 2.1

Cc1nc(C)c(C)nc1C
solubility (mole fraction)
Conditions | in acetone | in acetonitrile | in ethanol | in ethyl acetate | in isopropanol | in methanol | in methyl acetate | in n-butanol | in n-propanol
273.15 K | 0.0459 | 0.0279 | 0.0644 | 0.0958 | 0.0534 | 0.111 | 0.0758 | 0.106 | 0.102
278.15 K | 0.0592 | 0.034 | 0.0775 | 0.113 | 0.0702 | 0.119 | 0.094 | 0.126 | 0.114
283.15 K | 0.0712 | 0.0405 | 0.0911 | 0.136 | 0.0814 | 0.143 | 0.112 | 0.152 | 0.138
288.15 K | 0.0869 | 0.0503 | 0.11 | 0.16 | 0.0998 | 0.162 | 0.133 | 0.175 | 0.158
293.15 K | 0.106 | 0.0587 | 0.128 | 0.181 | 0.115 | 0.194 | 0.156 | 0.205 | 0.185
298.15 K | 0.132 | 0.0743 | 0.162 | 0.212 | 0.142 | 0.222 | 0.189 | 0.235 | 0.213
303.15 K | 0.156 | 0.0888 | 0.186 | 0.244 | 0.166 | 0.262 | 0.216 | 0.262 | 0.245
308.15 K | 0.185 | 0.115 | 0.216 | 0.284 | 0.196 | 0.296 | 0.254 | 0.302 | 0.3
313.15 K | 0.209 | 0.147 | 0.255 | 0.34 | 0.249 | 0.342 | 0.291 | 0.351 | 0.347
